Data published in publication PMC8752738, “A propolis-derived small molecule ameliorates metabolic syndrome in obese mice by targeting the CREB/CRTC2 transcriptional complex” (Nature Communications, 2022).
Where “and” joins values, the source holds several entries; their conditions need not be identical. Equal values may be shown once.

Columns and labels:
luciferase = target: T1, luciferase (Photinus pyralis, UniProt P08659); assay: Luciferase enzymatic assay; assay type: biochemical; conditions: lysate of HEK293T cells expressing CRE-Luc, 30 min
T1 construct: expressed in transfected cells; host or cells: HEK293T (lysate incubated with compound)
T1 sequence (P08659 whole entry): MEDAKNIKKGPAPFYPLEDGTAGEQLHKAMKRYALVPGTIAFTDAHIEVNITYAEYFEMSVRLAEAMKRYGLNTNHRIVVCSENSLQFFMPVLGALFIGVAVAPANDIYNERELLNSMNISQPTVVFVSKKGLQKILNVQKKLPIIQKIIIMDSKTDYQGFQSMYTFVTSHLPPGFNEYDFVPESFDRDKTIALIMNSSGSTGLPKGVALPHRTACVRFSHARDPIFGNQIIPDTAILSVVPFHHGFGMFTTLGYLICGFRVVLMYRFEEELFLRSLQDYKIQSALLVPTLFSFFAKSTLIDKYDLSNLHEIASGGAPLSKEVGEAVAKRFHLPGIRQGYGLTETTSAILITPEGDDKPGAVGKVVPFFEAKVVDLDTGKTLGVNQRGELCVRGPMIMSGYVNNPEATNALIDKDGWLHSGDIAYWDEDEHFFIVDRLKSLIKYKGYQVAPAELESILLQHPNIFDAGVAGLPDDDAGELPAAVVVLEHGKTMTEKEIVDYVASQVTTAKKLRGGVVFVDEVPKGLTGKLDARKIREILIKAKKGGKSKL
Description: HEK293T cells (4 × 10^5 per well of 24-well-plate) were transfected with plasmids expressing CRE-luciferase reporter (50 ng) together with RSV-β-gal (20 ng) by PEI-media overnight and induced by FSK (forskolin 10 nM) for 6-h. The cells were then collected in the lysis buffer (25 mM Gly-gly, 15 mM MgSO4, 4 mM EGTA, 1% V/V Triton X-100, 1 mM DTT, pH 7.8), mixed with an equal volume of luciferase substrate buffer (25 mM Gly-gly, 15 mM MgSO4, 4 mM EGTA, 250 mM potassium phosphate, 2.5 mM ATP, 2 mM DTT, 5 mg/mL luciferin, pH 7.8), and subjected to EnVision Multimode Plate Reader (Perkin/Elmer) to determine generated fluorescent signals.
13 d) Luciferase enzyme activity. The luciferase enzymatic activity from HEK293T cells incubated
The cells ectopically expressed luciferase (CRE-Luc) and were stimulated with FSK (10
15 nM) for 5 h before lysis, and then incubated with various concentrations of propolis for 30 min before
16 luciferase activity determination. One of two independent experiments presented here. Data are
17 represented as mean ± SEM (n=3 per treatment). ns, p > 0.05; *, p < 0.05; **, p < 0.01; p values were
18 determined by one-way ANOVA followed Dunnett’s multiple comparisons test.
13 f) The luciferase enzymatic activity of HEK293T incubated with APC. Cells over-expressed […]
17 determined by one-way ANOVA followed Dunnett’s multiple comparisons test.

HIS-CREB protein = target: T2, HIS-CREB protein (Homo sapiens, UniProt P16220); assay: Isothermal titration calorimetry; assay type: binding; conditions: HIS-CREB titrated into APC solution, one-site model; read-out: equilibrium dissociation constant (KD) between APC and CREB
T2 construct: made in house
T2 sequence (P16220 whole entry): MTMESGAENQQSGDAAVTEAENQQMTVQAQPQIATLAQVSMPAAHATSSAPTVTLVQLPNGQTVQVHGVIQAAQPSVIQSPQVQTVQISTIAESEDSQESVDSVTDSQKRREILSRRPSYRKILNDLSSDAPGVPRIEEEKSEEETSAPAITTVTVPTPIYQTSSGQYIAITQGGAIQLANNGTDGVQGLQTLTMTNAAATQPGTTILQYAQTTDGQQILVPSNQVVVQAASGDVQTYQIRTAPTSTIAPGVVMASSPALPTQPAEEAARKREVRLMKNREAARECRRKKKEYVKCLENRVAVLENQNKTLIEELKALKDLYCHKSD
Description: Isothermal titration calorimetry was performed using a MicroCal iTC200 calorimeter (Freiburg, Germany). The purified HIS-CREB protein and APC were diluted in buffer (PBS with 500 mM NaCl and 10% glycine, pH 8.0). APC solution was titrated by injection of HIS-CREB. The originally released heat from molecules binding was recorded and analyzed by Origin9 software (Origin Lab) supplied with the instrument.

[1] = target: T3, CREB / HA-CRTC2 interaction (Mus musculus, UniProt Q01147); assay: Co-immunoprecipitation of HA-CRTC2 with endogenous CREB, primary hepatocytes; assay type: cell-based; conditions: for HA/CREB in CREB-COIP fraction: Fig 2b replicates, AD-HA-CRTC2 +
T3 construct: expressed in transfected cells; host or cells: mouse primary hepatocytes infected with Ad-HA-Crtc2; CREB is endogenous
T3 sequence (Q01147 whole entry): as the sequence (P16220 whole entry) above, with E8D counted along it
Description: Fig. 2 APC blocks interaction between CREB and CRTC2. a Analysis of GST-CREB immunoprecipitated with overexpressed FLAG-CRTC2 from the lysates of HEK293T cells. APC (10 μM) was added to the culture media for 1 h and the following IP mixture. The relative gray density of FLAG in GST-pull-down fraction is shown as a bar graph (bottom). One of three independent experiments is presented (top, n = 3). Data are represented as mean ± SEM); P values were determined by one-way ANOVA followed Dunnett’s multiple comparisons test. b Analysis of HA-CRTC2 immunoprecipitated with endogenous CREB from primary hepatocyte lysates. APC (10 μM) was added to the culture media for 1-h before 30-min of stimulation with glucagon (Gluc, 100 nM) and the following IP mixture as indicated. Top panel presents one of three independent experiments, and the relative gray density of HA in CREB-IP-faction is shown as a bar graph (bottom, n = 3). Data are represented as mean ± SEM; P values were determined by one-way ANOVA followed Dunnett’s multiple comparisons test. c Immunoblotting analysis of endogenous CREB, CRTC2, and CBP interaction by an anti-CRTC2 antibody from the lysate of primary hepatocytes. APC (10 μM) was added to the culture media for 1-h before 30-min stimulation with glucagon. Related CREB and CBP normalized by CRTC2, respectively, in CRTC2-IP fractions. The top panel presents one of three independent experiments, and the relative gray density of CREB and CBP normalized to CRTC2 in the CRTC2-IP-faction is shown as a bar graph (bottom, n = 3). Data are represented as mean ± SEM; P values were determined by two-way ANOVA followed Bonferroni’s multiple comparisons test. d Immunoblotting analysis of protein GST-CREB recovered HIS-CRTC2-S171A proteins purified from E. coli. The addition of APC (5, 10, or 50 μM) in pull-down mixtures is indicated. The top part presents one of three independent experiments, and the relative gray density of HIS normalized to GST in GST-pull-down faction is shown as a bar graph (bottom, n = 3). Data are represented as mean ± SEM; P values were determined by one-way ANOVA followed Dunnett’s multiple comparisons test (compared with APC = 0).
Immunoblotting and immunoprecipitation assays were performed as previously described, with antibodies recognizing CREB, Ser133-P-CREB, AMPK, P-AMPK, AKT, P-AKT (Cell Signaling), PGC-1α (Merck), CRTC2 (Calbiochem), PCK1 (Santa Cruz), SREBP1 (Santa Cruz), SREBP2 (BD), HA (Convance), LXRα (Santa Cruz), FLAG (Sigma), GST (Covance), HIS (Abmart), GAPDH (AOGMA), α-TUBULIN (Abmart), β-ACTIN (Abmart), and other antibodies (Supplementary Table 3). For immunostaining assays, primary cultured hepatocytes seeded on coverslips were fixed with 4% paraformaldehyde for 20 min, permeabilized with 0.3% Triton X-100 in PBS, and then blocked by 5% normal goat serum and 0.3% Triton X-100 in PBS, followed by incubation with anti-CREB (1:1000), anti-P-CREB (1:1000), or anti-HA (1:3000) antibodies for 1 h at 4 °C. Slides were then washed, and after washing, slides were incubated with fluorochrome-conjugated secondary antibodies (Invitrogen). Slides were then washed and mounted with Vectashield mounting media containing 4, 6-diamidino-2-phenylindole (DAPI).

[2] = target: T4, endogenous CREB / CRTC2 interaction (Mus musculus, UniProt Q01147); assay: Co-immunoprecipitation by anti-CRTC2 antibody, primary hepatocytes: CREB; assay type: cell-based
T4 construct: endogenous in cells; host or cells: mouse primary hepatocytes
T4 sequence (Q01147 whole entry): as the sequence (P16220 whole entry) above, with E8D counted along it
Description: Fig. 2 APC blocks interaction between CREB and CRTC2. a Analysis of GST-CREB immunoprecipitated with overexpressed FLAG-CRTC2 from the lysates of HEK293T cells. APC (10 μM) was added to the culture media for 1 h and the following IP mixture. The relative gray density of FLAG in GST-pull-down fraction is shown as a bar graph (bottom). One of three independent experiments is presented (top, n = 3). Data are represented as mean ± SEM); P values were determined by one-way ANOVA followed Dunnett’s multiple comparisons test. b Analysis of HA-CRTC2 immunoprecipitated with endogenous CREB from primary hepatocyte lysates. […] Data are represented as mean ± SEM; P values were determined by one-way ANOVA followed Dunnett’s multiple comparisons test. c Immunoblotting analysis of endogenous CREB, CRTC2, and CBP interaction by an anti-CRTC2 antibody from the lysate of primary hepatocytes. […] Data are represented as mean ± SEM; P values were determined by two-way ANOVA followed Bonferroni’s multiple comparisons test. d Immunoblotting analysis of protein GST-CREB recovered HIS-CRTC2-S171A proteins purified from E. coli. […] Data are represented as mean ± SEM; P values were determined by one-way ANOVA followed Dunnett’s multiple comparisons test (compared with APC = 0). […]

[3] = target: T5, CRTC2 / SEC31A interaction (Mus musculus, UniProt Q3U182+Q3UPL0); assay: Co-immunoprecipitation CRTC2 / SEC31A; assay type: biochemical; conditions: APC 10 μM in IP mixture
T5 construct: expressed in transfected cells; host or cells: HEK293
T5 sequence (Q3U182 whole entry): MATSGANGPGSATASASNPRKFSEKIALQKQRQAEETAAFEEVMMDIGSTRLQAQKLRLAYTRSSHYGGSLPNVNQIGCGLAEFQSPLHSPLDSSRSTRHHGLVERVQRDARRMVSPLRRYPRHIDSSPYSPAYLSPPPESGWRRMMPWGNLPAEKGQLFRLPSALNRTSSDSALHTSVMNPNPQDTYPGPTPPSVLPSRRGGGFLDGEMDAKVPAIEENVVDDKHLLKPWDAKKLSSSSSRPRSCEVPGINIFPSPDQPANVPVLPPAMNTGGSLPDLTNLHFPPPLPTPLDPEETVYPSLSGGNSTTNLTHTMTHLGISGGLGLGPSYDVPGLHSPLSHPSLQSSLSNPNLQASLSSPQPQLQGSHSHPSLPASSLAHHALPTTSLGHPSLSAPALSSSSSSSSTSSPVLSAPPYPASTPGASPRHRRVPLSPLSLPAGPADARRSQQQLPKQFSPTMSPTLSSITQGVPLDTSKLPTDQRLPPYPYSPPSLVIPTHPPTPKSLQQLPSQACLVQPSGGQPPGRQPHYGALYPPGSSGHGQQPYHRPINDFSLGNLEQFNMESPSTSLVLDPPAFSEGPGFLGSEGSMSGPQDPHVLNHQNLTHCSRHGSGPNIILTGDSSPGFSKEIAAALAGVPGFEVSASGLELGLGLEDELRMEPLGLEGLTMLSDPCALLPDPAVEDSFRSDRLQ
T5 sequence (Q3UPL0 whole entry): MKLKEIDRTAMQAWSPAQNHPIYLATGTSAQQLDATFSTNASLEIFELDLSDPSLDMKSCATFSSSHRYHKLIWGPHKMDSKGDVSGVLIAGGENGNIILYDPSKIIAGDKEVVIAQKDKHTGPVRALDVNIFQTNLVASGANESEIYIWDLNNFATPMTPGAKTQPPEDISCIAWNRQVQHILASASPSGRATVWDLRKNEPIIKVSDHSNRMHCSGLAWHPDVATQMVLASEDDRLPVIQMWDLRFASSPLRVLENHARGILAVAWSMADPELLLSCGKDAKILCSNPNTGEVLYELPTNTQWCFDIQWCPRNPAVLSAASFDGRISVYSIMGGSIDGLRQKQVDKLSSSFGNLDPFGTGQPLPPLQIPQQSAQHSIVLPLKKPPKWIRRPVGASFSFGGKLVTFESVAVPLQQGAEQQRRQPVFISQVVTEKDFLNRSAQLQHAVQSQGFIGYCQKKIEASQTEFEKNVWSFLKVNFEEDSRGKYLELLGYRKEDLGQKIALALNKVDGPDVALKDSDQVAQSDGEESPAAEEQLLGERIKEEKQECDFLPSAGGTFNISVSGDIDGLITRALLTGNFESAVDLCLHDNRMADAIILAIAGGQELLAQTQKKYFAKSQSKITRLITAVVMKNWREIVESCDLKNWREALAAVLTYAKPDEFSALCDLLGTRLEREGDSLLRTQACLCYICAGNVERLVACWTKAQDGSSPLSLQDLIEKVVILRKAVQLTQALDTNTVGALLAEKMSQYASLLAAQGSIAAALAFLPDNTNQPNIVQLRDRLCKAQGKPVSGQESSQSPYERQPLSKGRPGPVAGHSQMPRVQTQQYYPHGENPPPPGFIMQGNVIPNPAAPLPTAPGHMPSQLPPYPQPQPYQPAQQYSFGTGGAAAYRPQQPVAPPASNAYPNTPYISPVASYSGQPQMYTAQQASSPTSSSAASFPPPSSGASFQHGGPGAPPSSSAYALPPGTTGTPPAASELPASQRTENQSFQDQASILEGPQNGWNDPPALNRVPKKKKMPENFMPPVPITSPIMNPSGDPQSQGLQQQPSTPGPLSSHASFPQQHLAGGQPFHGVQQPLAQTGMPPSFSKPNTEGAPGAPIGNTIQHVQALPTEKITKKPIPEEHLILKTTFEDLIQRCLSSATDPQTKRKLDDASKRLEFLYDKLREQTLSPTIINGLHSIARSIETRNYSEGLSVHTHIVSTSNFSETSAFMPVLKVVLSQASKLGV
Description: 1 b) Immunoprecipitation of SEC31A from HEK293 cell lysates with overexpressed […] or
2 FLAG-Crtc2-WT. APC (10 μM) was added to the IP mixture overnight. One of two independent
3 experiments is shown here. […]
5 administered MET and APC as in (a). Data are represented as mean ± SEM (n=6 per group). *,
6 p < 0.05; **, p < 0.01; p values were determined by two-way ANOVA followed Bonferroni’s multiple
7 comparisons test. Source data for this figure are provided as a Source data file.

## CC(C)=CCc1cc(C=CC(=O)O)cc(CC=C(C)C)c1O [APC, 3,5-diprenyl-4-hydroxycinnamic acid]
luciferase
  effect on luciferase enzymatic activity: no effect
HIS-CREB protein
  Kd: ~3.2 µM and 3.2 µM
[1]; APC +, Gluc +, APC in IP system +
  HA/CREB in CREB-COIP fraction: 93.4971 and 123.554 and 124.784
[1]; APC +, Gluc +, APC in IP system -
  HA/CREB in CREB-COIP fraction: 234.39 and 222.083 and 222.525
[1]; APC +, Gluc -, APC in IP system +
  HA/CREB in CREB-COIP fraction: 106.115 and 87.7697 and 106.142
[1]; APC +, Gluc -, APC in IP system -
  HA/CREB in CREB-COIP fraction: 166.202 and 169.06 and 171.069
[1]; APC -, Gluc +, APC in IP system +
  HA/CREB in CREB-COIP fraction: 192.388 and 190.79 and 193.652
[1]; APC -, Gluc -, APC in IP system +
  HA/CREB in CREB-COIP fraction: 107.959 and 107.638 and 128.065
[1]; primary hepatocytes, with or without glucagon, APC 10 μM
  HA-tagged CRTC2 immunoprecipitated by anti-CREB antibody: greatly decreased
[2]; Fig 2c replicates, APC+ (10 μM)
  CREB/CRTC2 band gray signal, CRTC2-COIP fraction: 0.6304 and 0.625 and 0.6291
[2]; primary hepatocyte lysates, APC 10 μM
  endogenous CREB co-immunoprecipitated by anti-CRTC2 antibody: significantly decreased
[3]
  protein interaction between CRTC2 and SEC31A: no impact
